ChEMBL document CHEMBL1131713, “Substituted piperidines--highly potent renin inhibitors due to induced fit adaptation of the active site” (Bioorg Med Chem Lett, 1999)
Active and inactive are the calls of the source. The calls are words filed in the database; no cut-off is given here.

Target: T1, Cathepsin D (Bos taurus) (UniProt P80209)
T1 sequence (whole entry): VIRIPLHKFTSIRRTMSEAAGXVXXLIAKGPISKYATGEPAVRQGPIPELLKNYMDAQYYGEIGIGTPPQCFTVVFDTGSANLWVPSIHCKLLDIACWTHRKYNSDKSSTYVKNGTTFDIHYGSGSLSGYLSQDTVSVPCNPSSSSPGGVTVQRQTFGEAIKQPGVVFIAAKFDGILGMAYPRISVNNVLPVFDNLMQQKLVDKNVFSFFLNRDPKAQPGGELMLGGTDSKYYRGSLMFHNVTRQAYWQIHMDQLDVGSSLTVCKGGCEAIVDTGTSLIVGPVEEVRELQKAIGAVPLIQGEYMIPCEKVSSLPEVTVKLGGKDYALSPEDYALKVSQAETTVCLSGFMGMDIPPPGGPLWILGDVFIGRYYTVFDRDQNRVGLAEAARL
Assay: Inhibition against bovine cathepsin D; NA means no activity

Activity | SMILES
inactive | COc1ccc(COC2CNCCC2c2ccc(Cl)cc2)cc1 (racemic)

Target: Human immunodeficiency virus type 1 protease (Human immunodeficiency virus 1) (UniProt Q72874)
Assay: Inhibition against HIV protease; NA means no activity

Activity | SMILES
inactive | COc1ccc(COC2CNCCC2c2ccc(Cl)cc2)cc1 (racemic)

Target: Pepsin A (Sus scrofa) (UniProt P00791)
Sequence (P00791 60-385 limits assumed): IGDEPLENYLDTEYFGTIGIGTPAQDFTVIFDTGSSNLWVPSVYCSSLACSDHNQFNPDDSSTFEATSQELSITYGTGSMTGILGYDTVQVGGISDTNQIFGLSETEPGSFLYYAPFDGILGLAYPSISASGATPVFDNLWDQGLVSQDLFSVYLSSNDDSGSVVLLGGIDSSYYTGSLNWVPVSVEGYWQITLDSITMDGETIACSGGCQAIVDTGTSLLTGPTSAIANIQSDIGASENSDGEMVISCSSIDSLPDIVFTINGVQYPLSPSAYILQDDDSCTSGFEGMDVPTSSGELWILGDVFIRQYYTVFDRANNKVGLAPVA
Assay: Inhibition against porcine pepsin; NA means no activity

Activity | SMILES
inactive | COc1ccc(COC2CNCCC2c2ccc(Cl)cc2)cc1 (racemic)

Target: T2, Renin (Homo sapiens, UniProt P00797)
T2 sequence (P00797 whole entry): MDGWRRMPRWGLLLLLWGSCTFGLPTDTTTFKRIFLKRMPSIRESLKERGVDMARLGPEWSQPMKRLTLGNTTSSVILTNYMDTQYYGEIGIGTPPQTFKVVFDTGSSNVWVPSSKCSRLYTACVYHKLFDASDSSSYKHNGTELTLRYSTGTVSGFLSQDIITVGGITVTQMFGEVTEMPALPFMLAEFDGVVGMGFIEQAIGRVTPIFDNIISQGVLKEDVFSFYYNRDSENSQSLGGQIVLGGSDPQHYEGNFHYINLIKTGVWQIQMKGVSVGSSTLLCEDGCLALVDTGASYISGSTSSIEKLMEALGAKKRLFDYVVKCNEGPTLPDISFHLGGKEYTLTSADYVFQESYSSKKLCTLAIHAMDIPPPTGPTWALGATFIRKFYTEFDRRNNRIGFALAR
Assay: In vitro inhibitory activity against purified recombinant human renin

SMILES | IC50 [µM]
COc1ccc(CO[C@H]2CNCC[C@@H]2c2ccc(Cl)cc2)cc1 | 26
COc1ccc(CO[C@@H]2CNCC[C@H]2c2ccc(Cl)cc2)cc1 | 1200
O=C(OCCOc1ccc([C@H]2CCNC[C@@H]2OCc2ccc3ccccc3c2)cc1)c1cccnc1 (racemic) | 0.58
c1ccc(COCCCOc2ccc([C@H]3CCNC[C@@H]3OCc3ccc4ccccc4c3)cc2)nc1 (racemic) | 0.21
O=S(=O)(NCc1ccc([C@H]2CCNC[C@@H]2OCc2ccc3ccccc3c2)cc1)c1ccccc1 (racemic) | 40
c1ccc(OCCCOCc2ccc([C@H]3CCNC[C@@H]3OCc3ccc4ccccc4c3)cc2)cc1 (racemic) | 0.54
O=C(CCCOc1ccc([C@H]2CCNC[C@@H]2OCc2ccc3ccccc3c2)cc1)c1ccccc1 (racemic) | 0.22
c1ccc(OCCCCOc2ccc([C@H]3CCNC[C@@H]3OCc3ccc4ccccc4c3)cc2)cc1 (racemic) | 0.22
c1ccc(CCOCCOc2ccc([C@H]3CCNC[C@@H]3OCc3ccc4ccccc4c3)cc2)cc1 (racemic) | 0.16
COc1ccc(COC2CNCCC2c2ccc(Cl)cc2)cc1 (racemic) | 50
COc1ccc(C(=O)NCc2ccc([C@H]3CCNC[C@@H]3OCc3ccc4ccccc4c3)cc2)cc1 (racemic) | > 1000
c1ccc(OCCOCc2ccc([C@H]3CCNC[C@@H]3OCc3ccc4ccccc4c3)cc2)cc1 (racemic) | 0.16
c1ccc(COCCCCOc2ccc([C@H]3CCNC[C@@H]3OCc3ccc4ccccc4c3)cc2)cc1 (racemic) | 0.1
O=C(NCCOc1ccc([C@H]2CCNC[C@@H]2OCc2ccc3ccccc3c2)cc1)c1ccccc1 (racemic) | 2.6
c1ccc(COCCCOCc2ccc([C@H]3CCNC[C@@H]3OCc3ccc4ccccc4c3)cc2)cc1 (racemic) | 0.74
c1cncc(-c2noc(COc3ccc([C@H]4CCNC[C@@H]4OCc4ccc5ccccc5c4)cc3)n2)c1 (racemic) | 0.88

Now those with a lower IC50, led by results:

IC50 [µM] | SMILES
0.091 | c1ccc(COCCOCc2ccc([C@H]3CCNC[C@@H]3OCc3ccc4ccccc4c3)cc2)cc1 (racemic)
0.087 | COc1cccc(C(=O)OCc2ccc([C@H]3CCNC[C@@H]3OCc3ccc4ccccc4c3)cc2)c1 (racemic)
0.055 | O=C(OCc1ccc([C@H]2CCNC[C@@H]2OCc2ccc3ccccc3c2)cc1)c1ccccc1 (racemic)
0.053 | c1ccc(COCCOc2ccc([C@H]3CCNC[C@@H]3OCc3ccc4ccccc4c3)cc2)cc1 (racemic)
0.041 | c1ccc(-c2noc(COc3ccc([C@H]4CCNC[C@@H]4OCc4ccc5ccccc5c4)cc3)n2)cc1 (racemic)
0.026 | O=C(OCCOc1ccc([C@H]2CCNC[C@@H]2OCc2ccc3ccccc3c2)cc1)c1ccccc1 (racemic)
0.008 | c1ccc(COCCCOc2ccc([C@H]3CCNC[C@@H]3OCc3ccc4ccccc4c3)cc2)cc1 (racemic)
0.0015 | COc1ccccc1COCCCOc1ccc([C@H]2CCNC[C@@H]2OCc2ccc3ccccc3c2)cc1 (racemic)
6e-05 | COc1ccccc1COCCCOc1ccc([C@H]2CCNC[C@@H]2OCc2cc(OC)c3ccccc3c2OC)cc1 (racemic)
2.5e-05 | CC(C)(C)S(=O)(=O)C[C@@H](Cc1ccccc1)C(=O)N[C@@H](Cc1cnc[nH]1)C(=O)N[C@@H](CC1CCCCC1)[C@@H](O)[C@@H](O)C1CC1 [REMIKIREN]
